In patent publication US20130281409A1, “Myelin Sheath Fatty Acids that Resolve Neuroinflammation” (priority 2012, published 2013):
Entries after “also recorded” stand apart in the source; their conditions may differ.

What was measured:
[1] = system: RAW 264.7 cells; experiment: Proliferation of LPS-stimulated RAW 264.7 macrophage cells; format: cell-based, mouse; conditions: 30 μg/ml lipid, 100 ng/ml LPS, 48 hours
Description: LPS-stimulated RAW 264.7 mouse macrophage cells: 1×10^5 cells/ml of RAW 264.7 cells were stimulated with 100 ng/ml of lipopolysaccharide (LPS) in the presence of 30 μg/ml of POPS, PGPC, azPC ester, or azPC.

[2] = system: splenocytes from PLP139-151-immunized SJL mice; experiment: PLP139-151-induced cytokine production by splenocytes of PLP139-151-immunized mice; format: cell-based, mouse; conditions: 30 μg/ml lipid, 48 hours
Description: PLP-stimulated cells from PLP139-151-immunized mice administered PGPC prophylactically: SJL/J mice were co-injected with PGPC and PLP139-151 in CFA and sacrificed 48 days later. Lymph node cells and splenocytes were then harvested and re-stimulated in vitro (2.5×10^6 cells/ml) with 10 μg/ml of PLP139-151 or with media alone. PLP-stimulated cells from untreated PLP139-151-immunized mice: SJL/J mice were immunized with PLP139-151 in CFA and sacrificed 10 days later. Splenocytes were then harvested and re-stimulated in vitro (at 5×10^5 cells/ml) with 10 μg/ml of PLP139-151 in the presence of 30 μg/ml of POPS, PGPC, azPC ester, or azPC. Cytokine production by cells from the lymph nodes and spleens of PGPC co-immunized mice was measured after 66 hours of stimulation by using the BD OptEIA™ Mouse IFN-γ ELISA kit (BD Biosciences). Cytokine assays for the anti-CD3/anti-CD28 antibody-stimulated T cells and PLP139-151-stimulated splenocytes were performed on culture supernatants after 48 hours of stimulation using the BD OptEIA™ Mouse IL-6, IFN-γ, and TNF alpha ELISA kits (BD Biosciences) and the Mouse IL-17 DuoSet ELISA Development kit (R&D Systems).

[3] = system: naive MBPAc1-11-TCR transgenic splenocytes; experiment: MBPAc1-11-induced cytokine production by MBPAc1-11-TCR transgenic splenocytes; format: cell-based, mouse; conditions: 30 μg/ml lipid; for MBPAc1-11-induced IFN-γ production / MBPAc1-11-induced IL-6 production / MBPAc1-11-induced TNF production: 2 μg/ml MBPAc1-11, 48 hours
Description: (§1) Splenocytes were harvested from mice transgenic for the MBPAc1-11-specific T-cell receptor and stimulated with 2 μg/ml of MBPAc1-11 in the presence of 30 μg/ml of lipid. Lymph nodes and spleens were also harvested from naive C57BL/6 mice, and CD3^+ T-cell enrichment columns (R&D systems) were used to isolate CD3^+ T cells. […] Cytokine assays were performed on culture supernatants after 24 (IL-12p40) or 48 hours (IFN-γ, IL-6, and TNF) of culture by using the BD OptEIA™ Mouse ELISA kits (BD Biosciences).

[4] = system: EAE in PLP139-151-immunized SJL/J mice; experiment: EAE, lipid or palmitic-acid treatment of established disease; format: in vivo, mouse
Description: Animal experiments were approved by, and performed in compliance with, the National Institute of Health guidelines of the Institutional Animal Care and Use Committee at Stanford University. For induction of EAE, 8- to 12-week-old female SJL/J mice (Jackson Laboratory) were immunized subcutaneously with 100 μg of PLP139-151 emulsified in CFA (Difco Laboratories). Lipid and palmitic-acid treatment: Administration of lipid, palmitic acid, or vehicle was initiated once the PLP139-151-immunized mice developed paralysis (representing clinical EAE) and repeated every other day, for a total of ten separate injections. 100 μg of POPS, PGPC, azPC ester, azPC, palmitic acid, or vehicle (0.05% Tween-20 in PBS) was administered in 0.2 ml intravenously in the tail. EAE treatment with lipid: 100 μg of PGPC or sphingomyelin or vehicle ([…] Tween-20 in PBS) was administered in 0.2 ml intravenously in the tail. Treatment with lipid or vehicle was initiated once the PLP139-151-immunized mice developed paralysis (representing clinical EAE) and repeated 3, 6, 12, and 18 days later, for a total of five separate injections.

[5] = system: CD3+ T cells; experiment: Proliferation of anti-CD3/anti-CD28-stimulated purified T cells; format: cell-based, mouse; conditions: anti-CD3 or anti-CD3 and anti-CD28, 30 μg/ml lipid, 48 hours
Description: as §1, with “Biosciences). Cd1d^−/− T cells: We harvested splenocytes from Cd1d^−/− mice and their wild-type littermates and used CD3^+ T-cell enrichment columns (R&D systems) to isolate T cells. […] Anti-CD3/anti-CD28-stimulated purified T cells: We harvested lymph nodes and spleens from naive C57BL/6 mice and used CD3^+ T-cell enrichment columns (R&D systems) to isolate CD3^+ T cells.” for “Biosciences).”

[6] = system: MBPAc1-11-TCR transgenic splenocytes; experiment: MBPAc1-11-specific T-cell proliferation (3H-thymidine incorporation); format: cell-based, mouse; conditions: 30 μg/ml lipid, 2 μg/ml MBPAc1-11
Description: Splenocytes were harvested from mice transgenic for the MBPAc1-11-specific T-cell receptor and stimulated with 2 μg/ml of MBPAc1-11 in the presence of 30 μg/ml of lipid. Lymph nodes and spleens were also harvested from naive C57BL/6 mice, and CD3^+ T-cell enrichment columns (R&D systems) were used to isolate CD3^+ T cells. The purified CD3^+ T cells were stimulated with 5 μg/ml of plate-bound anti-CD3 antibodies and anti-CD28 antibodies in the presence of 30 μg/ml of POPS, PGPC, azPC ester, brain sulfatides, or azPC, 0.25 mM palmitic acid, or 100% ethanol (as the vehicle control). For assessment of proliferation, 1 μCi of ^3H-thymidine was added to each well for the final 18-24 hours of culture, and incorporation of radioactivity was measured by using a Betaplate scintillation counter. Cytokine assays were performed on culture supernatants after 24 (IL-12p40) or 48 hours (IFN-γ, IL-6, and TNF) of culture by using the BD OptEIA™ Mouse ELISA kits (BD Biosciences).
5×10^6 cells/ml were stimulated in vitro with 2 μg/ml of MBPAc1-11 in the presence of various concentrations of palmitic acid (Sigma), other lipids, or 100% Ethanol (vehicle alone).
For assessment of proliferation, 1 μCi of ^3H-thymidine was added to each well for the final 18 hours of culture, and incorporation of radioactivity was quantified using a Betaplate scintillation counter.

[7] = 100 μg i.v. once paralysis developed, every other day, ten injections

SMILES | proliferation of LPS-activated RAW 264.7 cells [1] | PLP139-151-induced cytokine production (IL-17, IL-6, IFN-γ, TNF) [2] | MBPAc1-11-induced cytokine levels (cytokines not specified) ([3]; effects less dramatic than POPS and azPC) | EAE severity, established disease ([4]; 100 μg i.v. from disease onset (10 days after immunization), five injections) | EAE severity, established disease [4, 7] | T-cell proliferation, wild-type and Cd1d−/− T cells [5] | T-cell proliferation in response to MBPAc1-11 [6] | IL-12p40 production ([3]; 2 μg/ml MBPAc1-11, 24 hours) | MBPAc1-11-induced IFN-γ production [3] | MBPAc1-11-induced IL-6 production [3] | MBPAc1-11-induced TNF production [3]
CCCCCCCCCCCCCCCC(=O)OC[C@H](COP(=O)([O-])OCC[N+](C)(C)C)OC(=O)CCCC(=O)O [PGPC, 1-Palmitoyl-2-Glutaroyl-sn-Glycero-3-Phosphocholine] | suppress proliferation | suppress | reduced levels of some of the cytokines | attenuated EAE that was already established | ameliorate established EAE | suppress T-cell proliferation independently of CD1d | reduced T-cell proliferation | – | – | – | –
CCCCCCCC/C=C\CCCCCCCC(=O)O[C@H](COC(=O)CCCCCCCCCCCCCCC)COP(=O)(O)OC[C@H](N)C(=O)O [POPS, 1-Palmitoyl-2-Oleoyl-sn-Glycero-3-[Phospho-L-Serine]] | suppress proliferation | suppress | – | – | ameliorate established EAE | suppress T-cell proliferation independently of CD1d | reduced T-cell proliferation | Neither POPS nor the oxidized phosphatidylcholine derivatives affected production | did not significantly reduce | reduced | reduced
CCCCCCCCCCCCCCCC(=O)OC[C@H](COP(=O)([O-])OCC[N+](C)(C)C)OC(=O)CCCCCCCC(=O)O [azPC, 1-Palmitoyl-2-Azelaoyl-sn-Glycero-3-Phosphocholine] | suppressed proliferation; also recorded: suppress proliferation | suppress | – | – | ameliorate established EAE | suppress T-cell proliferation independently of CD1d | reduced T-cell proliferation | – | reduced | reduced | reduced
